Test results reported in patent US20120283175A1, “ANTIBACTERIAL COMPOSITIONS” (Achaogen, Inc., priority 2009, published 2012).

Tested on: Klebsiella pneumoniae (ATCC 43816)
Type: in vivo
Protocol: Vancomycin and LpxCi-5 were dissolved in 30% HPβCD (2-hydroxypropyl-β-cyclodextrin). Test substances were each administered subcutaneously (SC) singly or in combination to test animals at 2 hours and 14 hours after bacterial inoculation then bid daily for a total of 1, 2, 3 or 7 day(s). The dosing volume was 5 mL/kg.
Groups of 5 or 10 male specific-pathogen-free CD-1 (Crl.) mice weighing 24±2 g were used. Animals were immunosuppressed by two or three intraperitoneal injections of cyclophosphamide, the first at 150 mg/kg 4 days before infection (day −4) and the second or third at 100 mg/kg 1 day before or 3 days after infection (day −1 or +3). On day 0, animals were inoculated intramuscularly (0.1 mL/thigh) into the right thigh with a specific number (1.35×10^7 CFU/mouse) of Klebsiella pneumoniae (ATCC 43816). Vehicle and test substances (singly or in combination) were each administered subcutaneously 2 hours and 14 hours after inoculation then bid for a total of 1, 2, 3 or 7 consecutive day(s). Groups at 24, 48, 72 hours and day 8 hours after treatment as the designated time of harvest, muscle of the right thigh was harvested from each of the survival test animals. An additional group with no treatment, at 2 hours after inoculation, the muscle of the right thigh was harvested and viable CFU on agar plates with or without drug were quantified by standard methods. Animals in groups designated for Day 8 harvest are 10 mice and daily tally of survivors were kept until harvest and recorded. A non-infected group was just treated with LpxCi-5 and kept out to Day 8 and then harvested. The removed muscle tissues were then homogenized in 3˜4 mL of PBS, pH 7.4, with a ceramic mortar. Homogenates of 0.1 mL were used for serial 10-fold dilutions and plated on Muller-Hinton Broth in 1.5% Bacto agar and plated in parallel with drug plates for CFU determination. The original inoculum was adjusted to 2×10^8 CFU/0.1 mL and then plated onto the 3 different drug plates of LpxCi-5 for CFU count.
The immunity of animals treated with vehicle or vancomycin alone was suppressed by two intraperitoneal injections of cyclophosphamide, the first was at 150 mg/kg 4 days before infection (day −4) and the second was at 100 mg/kg 1 day before infection (day −1). On day 0, test compound and vehicle were each administered subcutaneously at 2 and 14 hrs after animals were inoculated intramuscularly (0.1 mL/thigh) with 1.35×10^7 CFU/mouse of Klebsiella pneumoniae (ATCC 43816).
(§1) The immunity of animals treated with LpxCi-5 alone was suppressed by two or three intraperitoneal injections of cyclophosphamide, the first was at 150 mg/kg 4 days before infection (day −4); the second and the third was at 100 mg/kg 1 day before and three days after infection (day −1 and day +3). On day 0, test compound were each administered subcutaneously bid at 2 and 14 hrs after animals were inoculated intramuscularly (0.1 mL/thigh) with 1.35×10^7 CFU/mouse of Klebsiella pneumoniae (ATCC 43816) for one, two, three or seven consecutive days. At 24, 48, 72 hours or at day 8 after treatment, muscle of the right thigh was harvested from each of the test animals for CFU determination in normal and drug plates.
as §1, with “both vancomycin and the LpxC inhibitor, LpxCi-5,” for “LpxCi-5 alone”, “compounds in combination” for “compound”, “days.” for “days. At 24, 48, 72 hours or at day 8 after treatment, muscle of the right thigh was harvested from each of the test animals for CFU determination in normal and drug plates.”

CN[C@H](CC(C)C)C(=O)N[C@H]1C(=O)N[C@@H](CC(N)=O)C(=O)N[C@H]2C(=O)N[C@H]3C(=O)N[C@H](C(=O)N[C@H](C(=O)O)c4cc(O)cc(O)c4-c4cc3ccc4O)[C@H](O)c3ccc(c(Cl)c3)Oc3cc2cc(c3O[C@@H]2O[C@H](CO)[C@@H](O)[C@H](O)[C@H]2O[C@H]2C[C@](C)(N)[C@H](O)[C@H](C)O2)Oc2ccc(cc2Cl)[C@H]1O [Vancomycin, vancomycin]
Mean CFU/g thigh muscle (SEM) (24 hr, normal plates, SC bid × 1, Vancomycin 25 mg/kg, LpxC-i 35 mg/kg): all animals died
animals for which the inoculum was lethal at 24 hours (Vancomycin only treatment group): 100%
time within which all mice died (vancomycin alone, SC at 2 and 14 hrs after inoculation): ≤ 24 h
